Laboratory results as given in patent US20250065147A1, “SYSTEMS AND METHODS FOR PHOTODYNAMIC THERAPY” (Virginia Commonwealth University, priority 2023, published 2025).
“And” between values parts separate entries of the source, which are not always exact repeats. Equal values may be shown once. “Also recorded” adds a separate entry of the source.

Columns and labels:
[1] = ICG distribution after administration in patient derived orthotopic xenograft (PDOX) mouse model; format: in vivo
Description: (§1) We set up a study of PDT with ICG using patient derived orthotopic xenograft (PDOX) mouse model (FIG. 7). In the PDOX model, the mouse liver has human liver cancer. […] We then found the optimal laser wavelength that liver-ICG can absorb with maximum intensity which was 809 nm (FIG. 2). We set up the laser to treat HCC with PDT with the setting numbers in Table 1.

[2] = Optimal laser wavelength that liver-ICG can absorb with maximum intensity; format: physicochemical; settings: FIG. 2
Description: as §1

[3] = system: HCC (human liver cancer); assay: PDT with ICG (809 nm laser) in PDOX mouse model; format: in vivo
Description: as §1

- ICG localisation ([1]; at 0 hr after ICG administration): present in the whole body
- ICG localisation ([1]; at 6 hrs after ICG administration): present in the liver
- optimal laser wavelength that liver-ICG can absorb with maximum intensity [2]: 805-815 nm and 809 nm
SMILES: CC1(C)C(/C=C/C=C/C=C/C=C2\N(CCCCS(=O)(=O)O)c3ccc4ccccc4c3C2(C)C)=[N+](CCCCS(=O)(=O)[O-])c2ccc3ccccc3c21 [ICG, indocyanine green]
- ICG localisation ([1]; at 24 hrs after ICG administration): confined to a liver tumor; also recorded: confined in only HCC inside the liver
- finding on MRI after treatment ([3]; 2 weeks after treatment, PDOX mouse): tumor necrosis
- pathologic evaluation of HCC ([3]; specimen after PDT with ICG): apoptosis of HCC
